Earlier results, collected in patent publication US20050163858A1 (priority 2003, published 2005).

Experiments:
[1] = tested on: serotonin 5HT1D
[2] = molecular target: dopamine D2 (Homo sapiens, UniProt P14416)
[3] = tested on: α1-adrenergic receptors
[4] = molecular target: T1, serotonin 5HT1A (Homo sapiens, UniProt P08908)
T1 sequence (P08908 1-422): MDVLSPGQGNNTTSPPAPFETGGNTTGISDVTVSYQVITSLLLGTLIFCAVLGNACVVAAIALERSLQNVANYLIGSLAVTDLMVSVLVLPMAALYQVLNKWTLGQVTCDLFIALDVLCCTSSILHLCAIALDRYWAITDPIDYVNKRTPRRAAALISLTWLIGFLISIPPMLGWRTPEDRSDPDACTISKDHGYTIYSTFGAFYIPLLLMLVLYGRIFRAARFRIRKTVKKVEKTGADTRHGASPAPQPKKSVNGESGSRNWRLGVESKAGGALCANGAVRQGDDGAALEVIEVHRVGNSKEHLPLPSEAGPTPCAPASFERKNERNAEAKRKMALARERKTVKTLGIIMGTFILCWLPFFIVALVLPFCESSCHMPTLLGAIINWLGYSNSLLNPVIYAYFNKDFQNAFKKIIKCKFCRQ

[5] = molecular target: T2, serotonin 5HT2C (Homo sapiens, UniProt P28335)
T2 sequence (P28335 33-458): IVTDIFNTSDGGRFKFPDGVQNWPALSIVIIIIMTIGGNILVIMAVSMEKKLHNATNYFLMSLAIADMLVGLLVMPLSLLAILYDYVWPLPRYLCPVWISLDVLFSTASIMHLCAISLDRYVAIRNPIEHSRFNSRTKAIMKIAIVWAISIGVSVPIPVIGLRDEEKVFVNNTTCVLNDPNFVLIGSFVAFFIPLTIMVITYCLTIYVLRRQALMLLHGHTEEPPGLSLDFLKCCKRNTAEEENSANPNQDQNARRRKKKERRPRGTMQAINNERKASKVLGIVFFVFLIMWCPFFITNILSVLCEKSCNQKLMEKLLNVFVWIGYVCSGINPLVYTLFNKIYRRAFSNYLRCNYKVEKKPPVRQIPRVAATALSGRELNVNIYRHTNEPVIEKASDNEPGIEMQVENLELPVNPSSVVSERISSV

[6] = molecular target: serotonin 5HT2A (Homo sapiens, UniProt P28223)
serotonin 5HT2A, sequence (P28223 whole entry): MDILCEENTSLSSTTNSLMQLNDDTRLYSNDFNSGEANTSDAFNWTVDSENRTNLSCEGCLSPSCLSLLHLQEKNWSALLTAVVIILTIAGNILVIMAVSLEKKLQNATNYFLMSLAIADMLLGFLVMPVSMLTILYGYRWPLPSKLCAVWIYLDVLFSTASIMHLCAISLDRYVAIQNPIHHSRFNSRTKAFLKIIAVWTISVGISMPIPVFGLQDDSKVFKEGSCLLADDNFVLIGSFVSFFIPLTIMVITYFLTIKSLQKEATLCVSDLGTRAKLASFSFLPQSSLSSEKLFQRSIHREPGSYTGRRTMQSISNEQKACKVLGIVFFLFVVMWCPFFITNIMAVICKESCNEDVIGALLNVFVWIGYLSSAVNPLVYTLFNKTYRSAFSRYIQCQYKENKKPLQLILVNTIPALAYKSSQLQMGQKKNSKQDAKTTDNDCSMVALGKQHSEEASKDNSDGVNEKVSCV

Measured: in vitro binding affinity

dopamine D2, sequence (P14416 whole entry): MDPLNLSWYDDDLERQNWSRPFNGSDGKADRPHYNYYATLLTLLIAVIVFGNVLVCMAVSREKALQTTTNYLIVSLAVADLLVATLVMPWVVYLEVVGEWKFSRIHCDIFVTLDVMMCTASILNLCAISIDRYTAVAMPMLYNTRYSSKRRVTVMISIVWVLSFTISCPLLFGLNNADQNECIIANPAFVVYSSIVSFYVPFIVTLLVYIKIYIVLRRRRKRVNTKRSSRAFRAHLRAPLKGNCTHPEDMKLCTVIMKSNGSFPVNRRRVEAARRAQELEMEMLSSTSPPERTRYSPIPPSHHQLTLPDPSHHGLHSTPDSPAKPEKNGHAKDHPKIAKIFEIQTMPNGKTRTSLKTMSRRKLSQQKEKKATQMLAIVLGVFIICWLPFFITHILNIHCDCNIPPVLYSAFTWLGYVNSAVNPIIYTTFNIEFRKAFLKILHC

O=C1Cc2cc(CCN3CCN(c4nsc5ccccc45)CC3)c(Cl)cc2N1 [Ziprasidone, 5-[2-[4-(1,2-benzisothiazol-3-yl)-1-piperazinyl]ethyl]-6-chloro-1,3-dihydro-2H-indol-2-one]
high: all assays above
